The assay relates to Puccinia recondita. Kind of assay: Greenhouse test on wheat infected with Puccinia recondita at full and reduced dose rate (Example 12). It counts as in vivo, Puccinia recondita on wheat (species "Kanzler"). The settings on record: for Infected leaf area at 25% dose rate: 2.5 g/ha pesticide (epoxiconazole) and 5 g/ha adjuvant; for Infected leaf area at 100% dose rate: 10 g/ha pesticide (epoxiconazole) and 20 g/ha adjuvant. Here is the method: The biological activity was assessed in a greenhouse on wheat (species “Kanzler”), which was infected with Puccinia recondita at two leafs stage and incubated for three days at high humidity. The plants were sprayed (spray volume 200 l/ha) with a composition comprising 50 ppm (10 g/ha) epoxiconazole and 100 ppm (20 g/ha) of the respective adjuvant samples from Example 1-9. In the comparative example no adjuvant was added. The plants were further cultivated for ten days at 20-24° C. and 60-90% relative humidity. Finally, the percentage of the infected leaf area was visually inspected. Each value was based on three replicates.
The biological activity was assessed in a greenhouse as described in Example 11 with a dose rate of 10 g/ha pesticide and 20 g/ha adjuvant (“100%” in Table 4) and a reduced dose rate of 2.5 g/ha pesticide and 5 g/ha adjuvant (“25%” in Table 4). In this test the adjuvants from Example 1 (formula A), Example 2 (formula B) and as comparative adjuvant butyl endcapped ethoxylated (5EO) n-dodecanol (formula C) were compared. All three compounds are butyl endcapped. Formula A and C have the same degree of ethoxylation of five ethylene oxide (EO) units. Formula B (only 3 EO) and C have a similar overall molecule weight. n-C12-18—[O—CH2—CH2]5—O—CH2—O—CH2—CH2—O—Bu (A) n-C12-18—[O—CH2—CH2]3—O—CH2—O—CH2—CH2—O—Bu (B) n-C12[O—CH2—CH2]5—Bu (C)

As for “n-C12-18—[O—CH2—CH2]3—O—CH2—O—CH2—CH2—O—Bu [(B)]”, the “Infected leaf area at 25% dose rate” value worked out at 13% and the “Infected leaf area at 100% dose rate” value is on record as 6%.

With “butyl endcapped ethoxylated (5EO) n-dodecanol [(C), reference compound]”, the “Infected leaf area at 25% dose rate” value is recorded as 38% and the “Infected leaf area at 100% dose rate” value came out at 8%.

Regarding “n-C12-18—[O—CH2—CH2]5—O—CH2—O—CH2—CH2—O—Bu [(A)]”, the “Infected leaf area at 25% dose rate” value is 23% and the “Infected leaf area at 100% dose rate” value worked out at 7%.

For the origin of these results see US11051510B2, “Asymmetric formales and acetales as adjuvants for crop protection” (BASF SE, priority 2014, dated 2021).
